In ChEMBL document CHEMBL1770151, “An efficient and expedient method for the synthesis of 11C-labeled α-aminoisobutyric acid: a tumor imaging agent potentially useful for cancer diagnosis” (Bioorg Med Chem Lett, 2011):

Columns and labels:
[1] = Drug uptake in human SY-cells xenografted mouse tumor at 20 MBq, iv after 50 to 60 mins by positron emission tomography; format: ADME, organism-based, Neoplasm; conditions: in vivo
[2] = Drug uptake in human SY-cells xenografted mouse tumor at 200 kBq, iv after 15 to 25 mins by positron emission tomography; format: ADME, organism-based, Neoplasm; conditions: in vivo

SMILES	Drug uptake [1]	Drug uptake [2]
CC([11CH3])(N)C(=O)O (stereo not drawn)	Active	
[11CH3]SCC[C@H](N)C(=O)O	Active	
OC[C@H]1O[C@@H](O)[C@H]([18F])[C@@H](O)[C@@H]1O [FLUDEOXYGLUCOSE-F18]		Active
